Literature values, collected in patent US6509447B1, “G protein chimeras and methods of screening compounds” (Glaxo Welcome Inc., priority 1997, dated 2003).

Target: T1, Ste2p (Saccharomyces cerevisiae, UniProt D6VTK4)
T1 sequence (D6VTK4 1-431): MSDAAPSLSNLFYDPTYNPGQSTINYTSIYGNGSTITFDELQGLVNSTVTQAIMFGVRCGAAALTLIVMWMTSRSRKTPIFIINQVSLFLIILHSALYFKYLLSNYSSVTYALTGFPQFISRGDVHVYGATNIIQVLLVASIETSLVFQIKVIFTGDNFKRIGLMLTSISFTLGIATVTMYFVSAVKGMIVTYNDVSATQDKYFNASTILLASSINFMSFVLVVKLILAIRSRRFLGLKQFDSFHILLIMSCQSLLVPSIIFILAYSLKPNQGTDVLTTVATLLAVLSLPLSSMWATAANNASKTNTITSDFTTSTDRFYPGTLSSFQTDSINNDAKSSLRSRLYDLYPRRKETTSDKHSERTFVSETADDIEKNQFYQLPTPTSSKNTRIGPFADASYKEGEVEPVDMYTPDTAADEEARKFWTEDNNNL
Settings: literature reference (3); read-out: reported affinity of Ste2p for α-factor peptide (Kd); cited from earlier work

For α-factor, the Kd is given as 17 nM.
